# What was measured:
# [1] = tested on: Micrococcus luteus ATCC #10240; experiment: MIC via Zone of Inhibition testing, M. luteus; assay type: cell-based
# Procedure: (§1) For culture preparation, an overnight Tryptic Soy Agar (TSA) culture was grown with M. luteus ATCC #10240. This culture was washed and diluted with saline to 85% transmittance at 530 nm. An overnight anaerobic culture of P. acnes ATCC#11827 was prepared in Brain Heart Infusion Broth (BHIB). This was washed with saline and diluted to 85% transmittance at 530 nm. An overnight aerobic culture of C. xerosis ATCC#373 was also grown in BHIB, washed with saline and diluted to 85% transmittance at 530 nm. These cultures were used as inocula. Three sets of nine different dilutions of sample were prepared for MIC results using TSA or BHIB as follows: (1) 2.0 grams sample+8.0 mL media=1:5 or 20%; (2) 2.0 mL of #1+8.0 mL media=1:25 or 4%; (3) 2.0 mL of #2+8.0 mL media=1:125 or 0.8%; (4) 2.0 mL of #3+8.0 mL media=1:625 or 0.16%; (5) 2.0 mL of #4+8.0 mL media=1:3125 or 0.032%; (6) 2.0 mL of #5+8.0 mL media=1:15625 or 0.0064%; (7) 2.0 mL of #6+8.0 mL media=1:78125 or 0.00128%; (8) 2.0 mL of #7+8.0 mL media=1:390625 or 0.000256%; and (9) 2.0 mL of #8+8.0 mL media=1:1953125 or 0.0000512%.
# (§2) The product dilutions were dispensed onto Zone of Inhibition plates. TSA and BHIB plates were prepared by using the base and seed method. Seed consisted of 2.0 mL of inoculum per 20.0 mL of TSA or BHIB used. A single penicylinder placed in the center of the plate when agar was solidified. Each penicylinder was inoculated with 200 μL of the MIC dilutions listed above; this procedure was performed in duplicate. Control plates were performed simultaneously; also using the base and seed method. M. luteus plates were incubated for 48 hours at 30° C. to 35° C. P. acnes plates were incubated for 5-7 days 36° C. to 38° C. anaerobically, C. xerosis plates were incubated aerobically at 36° C. to 38° C. Plates were measured for zones and calculated in millimeters.
# For MLC Preparation, swabbing of the zones was performed to calculate MLC results. […] These swabs were then placed in TSA or BHIB for incubation. […] MLC results are recorded as positive or negative for growth.
# P. acnes ATCC#11827 [2] = experiment: MIC via Zone of Inhibition testing, P. acnes; assay type: cell-based, Propoinibacterium acnes
# Procedure: as §1, §2
# (§3) For MLC Preparation, swabbing of the zones was performed to calculate MLC results. […] These swabs were then placed in TSA or BHIB for incubation. M. luteus tubes were incubated for 48 hours at 30° C. to 35° C. P. acnes tubes were incubated for 5-7 days at 35° C. to 38° C. anaerobically, C. xerosis tubes were incubated aerobically at 36° C. to 38° C. Tubes were inspected visually for growth and indicated below. Numbers indicate the average of the zone sizes on the two plates (in millimeters) as per MIC dilution. MLC results are recorded as positive or negative for growth.
# C. xerosis ATCC#373 [3] = experiment: MIC via Zone of Inhibition testing, C. xerosis; assay type: cell-based, Corynebacterium xerosis
# Procedure: as §1, §2, §3
# [4] = tested on: Micrococcus luteus ATCC #10240; experiment: MLC by swabbing of the zones, M. luteus; assay type: cell-based; set-up: key: (+): MLC results are recorded as positive or negative for growth; (−): MLC results are recorded as positive or negative for growth
# Procedure: as §3
# P. acnes ATCC#11827 [5] = experiment: MLC by swabbing of the zones, P. acnes; assay type: cell-based, Propoinibacterium acnes; set-up: key: (+): MLC results are recorded as positive or negative for growth; (−): MLC results are recorded as positive or negative for growth
# Procedure: as §3
# C. xerosis ATCC#373 [6] = experiment: MLC by swabbing of the zones, C. xerosis; assay type: cell-based, Corynebacterium xerosis; set-up: key: (+): MLC results are recorded as positive or negative for growth; (−): MLC results are recorded as positive or negative for growth
# Procedure: as §3
# [7] = Solubility in cosmetic solvents; assay type: physicochemical
# human skin = experiment: Irritation and sensitization of human skin; assay type: in vivo; details: at levels effective for suppressing malodor formation
# gram-positive bacteria = experiment: Killing and suppressing gram-positive bacteria; assay type: cell-based
smiles,measurement,setting,value
"CCCCCCCCCC(=O)N(C)C [dimethyl capramide, N,N-dimethyldecanamide]","MIC/Zone of Inhibition, average zone size",[1]; dilution 1:5 (20%),14.7 millimeters
same,"MIC/Zone of Inhibition, average zone size",[1]; dilution 1:25 (4%),14.2 millimeters
same,"MIC/Zone of Inhibition, average zone size",[1]; dilution 1:125 (0.8%),13.6 millimeters
same,"MIC/Zone of Inhibition, average zone size",P. acnes ATCC#11827 [2]; dilution 1:5 (20%),21.2 millimeters
same,"MIC/Zone of Inhibition, average zone size",P. acnes ATCC#11827 [2]; dilution 1:25 (4%),23.8 millimeters
same,"MIC/Zone of Inhibition, average zone size",P. acnes ATCC#11827 [2]; dilution 1:125 (0.8%),18.0 millimeters
same,"MIC/Zone of Inhibition, average zone size",P. acnes ATCC#11827 [2]; dilution 1:625 (0.16%),8.1 millimeters
same,"MIC/Zone of Inhibition, average zone size",C. xerosis ATCC#373 [3]; dilution 1:5 (20%),20.2 millimeters
same,"MIC/Zone of Inhibition, average zone size",C. xerosis ATCC#373 [3]; dilution 1:25 (4%),13.9 millimeters
same,"MIC/Zone of Inhibition, average zone size",C. xerosis ATCC#373 [3]; dilution 1:125 (0.8%),17.3 millimeters
same,"MIC/Zone of Inhibition, average zone size",C. xerosis ATCC#373 [3]; dilution 1:625 (0.16%),8.6 millimeters
same,"MIC/Zone of Inhibition, average zone size",C. xerosis ATCC#373 [3]; dilution 1:3125 (0.032%),7.2 millimeters
same,"MLC Results, growth from swabbed zone",[4]; dilution 1:5 (20%),(−)
same,"MLC Results, growth from swabbed zone",[4]; dilution 1:25 (4%),(+)
same,"MLC Results, growth from swabbed zone",[4]; dilution 1:125 (0.8%),(+)
same,"MLC Results, growth from swabbed zone",P. acnes ATCC#11827 [5]; dilution 1:5 (20%),(−)
same,"MLC Results, growth from swabbed zone",P. acnes ATCC#11827 [5]; dilution 1:25 (4%),(−)
same,"MLC Results, growth from swabbed zone",P. acnes ATCC#11827 [5]; dilution 1:125 (0.8%),(+)
same,"MLC Results, growth from swabbed zone",P. acnes ATCC#11827 [5]; dilution 1:625 (0.16%),(+)
same,"MLC Results, growth from swabbed zone",C. xerosis ATCC#373 [6]; dilution 1:5 (20%),(−)
same,"MLC Results, growth from swabbed zone",C. xerosis ATCC#373 [6]; dilution 1:25 (4%),(−)
same,"MLC Results, growth from swabbed zone",C. xerosis ATCC#373 [6]; dilution 1:125 (0.8%),(−)
same,"MLC Results, growth from swabbed zone",C. xerosis ATCC#373 [6]; dilution 1:625 (0.16%),(+)
same,"MLC Results, growth from swabbed zone",C. xerosis ATCC#373 [6]; dilution 1:3125 (0.032%),(+)
same,solubility,[7]; in cyclomethicone,greater than 50 wt. %
same,solubility,[7]; in propylene glycol,greater than 50 wt. %
same,irritation of human skin,human skin,non-irritating
same,killing and suppressing gram-positive bacteria,gram-positive bacteria,effective in killing and suppressing

# — patent publication US20030215472A1, “Methods and compositions employing a dialkyl amide” (priority 2002, published 2003)
